Assay results: US20100048529A1, “New 2-Azetidinone Derivatives Useful In The Treatment Of Hyperlipidaemic Conditions” (ASTRAZENECA AB, priority 2005, published 2010)

Tested on: 14C-cholesterol absorption
Settings: 0.2 μmol/kg by gavage, C57BL/6 female mice, procedure A
Experimental: In Vivo Testing of Cholesterol Absorption Inhibitors (A)
C57BL/6 female mice were maintained on regular chow diet and housed in individual cages to collect faeces. Mice were fasted for 3 hours and then gavaged with vehicle or compound. Half an hour later the mice were gavaged with radiolabelled cholesterol. Six hours after the ^14C-cholesterol gavage blood samples were taken via the tail and plasma prepared to determine how much cholesterol were absorbed. 24 hours after the gavage of ^14C-cholesterol the mice were bled and plasma were prepared for analysis. Faeces were collected for 24 hours to assess absorption efficiency.

Question: With CC(C)(c1ccccc1)[C@@H](NC(=O)CNC(=O)COc1ccc([C@@H]2[C@@H](SCC(O)c3ccc4c(c3)CCO4)C(=O)N2c2ccc(F)cc2)cc1)C(=O)NCC(=O)O (stereo partly drawn) [Example 1, N-({4-[(2R,3R)-3-{[2-(2,3-dihydro-1-benzofuran-5-yl)-2-hydroxyethyl]thio}-1-(4-fluorophenyl)-4-oxoazetidin-2-yl]phenoxy}acetyl)glycyl-b,b-dimethyl-D-phenylalanylglycine] as the molecule, how does the “inhibition of 14C-cholesterol absorption” value read?
Answer: 36%
